According to the Kinase Knowledgebase extract (Sharma et al. 2016):

Each compound was assayed against MAPK14 (UniProt Q16539).
Sequence of MAPK14 (Q16539 whole entry, looked up): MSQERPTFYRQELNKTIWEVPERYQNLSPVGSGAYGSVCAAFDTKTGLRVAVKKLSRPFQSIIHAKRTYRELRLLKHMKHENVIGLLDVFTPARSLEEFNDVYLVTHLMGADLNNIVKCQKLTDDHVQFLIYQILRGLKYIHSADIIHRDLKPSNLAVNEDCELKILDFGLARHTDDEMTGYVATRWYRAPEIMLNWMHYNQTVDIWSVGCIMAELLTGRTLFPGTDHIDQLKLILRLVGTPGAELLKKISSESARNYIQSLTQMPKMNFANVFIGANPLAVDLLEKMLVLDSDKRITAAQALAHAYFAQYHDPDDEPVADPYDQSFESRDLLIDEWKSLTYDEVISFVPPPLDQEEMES

IC50 [µM] | Compound
< 50 | CC[C@@H](CO)n1cnc(-c2ccc(F)cc2)c1-c1ccnc(Oc2ccc(C)cc2)n1
< 50 | CC[C@@H](CO)n1cnc(-c2ccc(F)cc2)c1-c1ccnc(Oc2ccc(Cl)cc2)n1
< 50 | C[C@H](CO)n1cnc(-c2ccc(F)cc2)c1-c1ccnc(Oc2ccc(F)cc2)n1
< 50 | CC[C@@H](CO)n1cnc(-c2ccc(F)cc2)c1-c1ccnc(Oc2ccccc2)n1
< 50 | OC[C@H](c1ccccc1)n1cnc(-c2ccc(F)cc2)c1-c1ccnc(Oc2ccccc2)n1
< 50 | CC[C@H](CO)n1cnc(-c2ccc(F)cc2)c1-c1ccnc(Oc2ccccc2)n1
< 50 | C[C@H](CCN1CCOCC1)n1cnc(-c2ccc(F)cc2)c1-c1ccnc(Oc2ccccc2)n1
< 50 | C[C@@H](CO)n1cnc(-c2ccc(F)cc2)c1-c1ccnc(Oc2ccc(Cl)cc2)n1
< 50 | C[C@@H](CO)n1cnc(-c2ccc(F)cc2)c1-c1ccnc(Oc2ccc(F)cc2)n1
< 50 | OCC(CO)n1cnc(-c2ccc(F)cc2)c1-c1ccnc(Oc2ccccc2)n1
< 50 | OCC(CO)n1cnc(-c2ccc(F)cc2)c1-c1ccnc(Oc2ccc(F)cc2)n1
< 50 | CC[C@H](CO)n1cnc(-c2ccc(F)cc2)c1-c1ccnc(Oc2ccc(Cl)cc2)n1
< 50 | Cc1ccc(Oc2nccc(-c3c(-c4ccc(F)cc4)ncn3[C@@H](C)CO)n2)cc1
< 50 | CC[C@H](CO)n1cnc(-c2ccc(F)cc2)c1-c1ccnc(Oc2ccc(C)cc2)n1
< 50 | Cc1ccc(Oc2nccc(-c3c(-c4ccc(F)cc4)ncn3C(CO)CO)n2)cc1
< 50 | OC[C@@H](c1ccccc1)n1cnc(-c2ccc(F)cc2)c1-c1ccnc(Oc2ccccc2)n1
